According to patent US8884026B2, “Process for preparing rufinamide intermediate” (Laboratorios Lesvi, S.L., priority 2010, dated 2014):

Tests used:
[1] = Grinding experiments in a ball mill, solid phase by PXRD; type: physicochemical; settings: with solvent or without solvent
Experimental: Grinding experiments were performed in a Retsch MM400 Ball Mill using the following methodology: samples of 30 mg of phase R-5 of Rufinamide were grinded at a frequency of 20 s^−1 for 15 min, with a drop of solvent and without solvent.

[2] = Thermal stability experiments under vacuum, solid phase by PXRD; type: physicochemical; settings: 40° C., 1 mbar, different periods of time
Experimental: Further advantages of polymorphic form R-5 arose from the significant good thermal stability that has shown over time. […] Thermal stability experiments were performed in a Binder Vacuum oven VD53 using the following methodology. Samples of from R-5 of Rufinamide were kept under vacuum, at 40° C. for different periods of times (at 1 mbar), see table 3 below. There were no significant differences in the PXRD patterns of the solids obtained after the thermal treatment.

Structure (SMILES): NC(=O)c1cn(Cc2c(F)cccc2F)nn1 [R-5, 1-(2,6-difluorobenzyl)-1H-1,2,3-triazole-4-carboxamide]
- Change of polymorphic form by grinding [1]: does not change
- Change of polymorphic form under accelerated degradation (thermal stability) [2]: No changes in polymorphic form
